Consider eleven compounds from patent US20090123419A1, “TREATMENT OF UTERINE CANCER AND OVARIAN CANCER WITH A PARP INHIBITOR ALONE OR IN COMBINATION WITH ANTI-TUMOR AGENTS” (BiPar Sciences, priority 2007, published 2009).

Like-named read-outs stand apart in the source and are kept apart here.

The test system of data set [1] is advanced solid tumors. As to the kind of experiment: Phase 1b study of BA in combination with chemotherapy, clinical response via RECIST. It counts as in vivo, human. As to conditions: number of subjects; chemotherapy in combination with BA. The procedure:
The protocol has been amended to evaluate BA in combination with chemotherapy in specific tumor types.
BA plus cytotoxic chemotherapy (CTX)
BA Dosing: • Twice weekly; i.v. infusion • Standard 3+3 design for BA dose escalation • Dose levels studied: 2.0, 2.8, 4.0, 5.6, 8.0, and up to 11.2 mg/kg
Clinical response via RECIST every 2 cycles
Subjects— 18 years old with a refractory, advanced solid tumor, ECOG PS of <=2, and adequate hematological, renal, and hepatic function
No restriction on number of prior chemotherapeutic regimens

The test system of data set [2] is advanced endometrial cancer. As to conditions: of 29 patients enrolled; preliminary data analysis; cited from earlier work.
Data set [3] deals with carcinosarcoma of the uterus. As to conditions: single agent; cited from earlier work.
The subject of data set [4] is endometrial carcinoma. The following applies: cited from earlier work.
Data set [5] has as its system panel of 63 other kinases, including native c-Abl. As to conditions: cited from earlier work.
Data set [6] relates to cells not expressing Bcr-Abl. The following applies: cited from earlier work.
For data set [7], the system named is advanced or recurrent endometrial cancer. The following applies: single agent; cited from earlier work.
Data set [8] has as its system persistent or recurrent nonsquamous cell carcinoma of the cervix. As to conditions: cited from earlier work.
In data set [9] the test system is carcinosarcoma of the uterus. As to conditions: cited from earlier work.
Data set [10] relates to carcinosarcoma of the uterus. The following applies: cited from earlier work. The source holds these as a separate data set.

Take `Cn1nnc2c(C(N)=O)ncn2c1=O` [Temozolomide, temozolomide]: the “CR + PR” value in [1] worked out at 1.

Turning to `COc1cc2ncnc(Nc3ccc(F)c(Cl)c3)c2cc1OCCCN1CCOCC1` [ZD1839, gefitinib], in [2], the “patients with complete response” value was 1 patient and the “patients with stable disease at 6 months” value is recorded as “several”.

Turning to `COc1cccc2c1C(=O)c1c(O)c3c(c(O)c1C2=O)C[C@@](O)(C(=O)CO)C[C@@H]3O[C@H]1C[C@H](N)[C@H](O)[C@H](C)O1` [doxorubicin], the response rate in [3] is listed as 9.8%. The “response rate (RR)” value in [4] (doxorubicin 60 mg/m^2, cisplatin 50 mg/m^2, p=0.004) was 25%. Besides, in data set [4] (in vivo), the PFS is 3.8 months. Also, in [4] (no difference observed), the OS is recorded as 9 months.

As for `COc1cc([C@@H]2c3cc4c(cc3[C@@H](O[C@@H]3O[C@@H]5CO[C@@H](C)O[C@H]5[C@H](O)[C@H]3O)[C@H]3COC(=O)[C@H]23)OCO4)cc(OC)c1O` [etoposide], the response rate in data set [3] was 6.5%.

Take `NC(=O)c1cccc(-c2cc(Nc3ccc(OC(F)(F)F)cc3)ncn2)c1` [GNF-2]: the “inhibition of a panel of 63 other kinases” value in data set [5] is “does not inhibit”. For the same compound, the “toxicity towards cells not expressing Bcr-Abl” value in data set [6] is on record as “complete lack of toxicity”.

Consider `CC(=O)O[C@H]1C(=O)[C@@]2(C)[C@H]([C@H](OC(=O)c3ccccc3)[C@]3(O)C[C@H](OC(=O)[C@H](O)[C@@H](NC(=O)c4ccccc4)c4ccccc4)C(C)=C1C3(C)C)[C@]1(OC(C)=O)CO[C@@H]1C[C@@H]2O` [paclitaxel], for which the response rate in [3] was 18.2%; in data set [7], 36%.

Consider `CC[C@@]1(O)C(=O)OCc2c1cc1n(c2=O)Cc2cc3c(CN(C)C)c(O)ccc3nc2-1` [topotecan], for which the response rate in data set [3] is 10%. The “CR + PR” value in [1] is given as 1.

For `CC/C(=C(\c1ccccc1)c1ccc(OCCN(C)C)cc1)c1ccccc1` [tamoxifen], in [8] (27 evaluable for response), the complete responses entry is on record as “one” and the partial responses entry was “two”. Moreover, the “grades 3 and 4 adverse effects reported” value in [8] (32 patients evaluable for adverse effects) is on record as “six”. In addition, the “antitumor activity, conclusion” value in [8] (in vivo) is reported as “minimal activity”. Moreover, the objective response rate in data set [8] (tamoxifen citrate 10 mg orally twice a day, 27 evaluable for response) was 11.1%.

Consider `Nc1ccn(C2OC(CO)C(O)C2(F)F)c(=O)n1` (centres unmarked) [Gemcitabine, 4-amino-1-[3,3-difluoro-4-hydroxy-5-(hydroxymethyl)tetrahydrofuran-2-yl]-1H-pyrimidin-2-one], for which the “CR + PR” value in [1] worked out at 3.

As for `O=P1(NCCCl)OCCCN1CCCl` (centres unmarked) [ifosfamide], the figures for the median progression-free survival in data set [9] (p=0.02) and in [10] (p=0.03) were 4 months and 3.6 months, respectively. The median survival in data set [9] (p=0.07) was 7.6 months; in data set [10] (p=0.03) it was 8.4 months. The response rate in data set [9] (randomized phase III trial) is on record as 36%; in data set [3], 32.2%; in data set [10] (second randomized trial), 29%. The toxicity entry in data set [10] (use of ifosfamide) was “significant toxicity”.

With `N.N.[Cl][Pt][Cl]` [cisplatin], the response rate in data set [3] is 18%.
